In brackets after ≈: the same amount, converted by molar mass.
Key:
[1] = Lyophilisation solubility assay (LYSA); type: physicochemical; conditions: 0.05 M phosphate buffer, HPLC-UV; for solubility thermodynamic: phosphate buffer, pH 6.5, aqueous buffer, thermodynamic from solid; for Lysa: pH 6.5
Experimental: Lyophilisation Solubility Assay (LYSA):
The solubility of compounds of present invention was assessed by LYSA assay. Samples were prepared in duplicate from 10 mM DMSO stock solutions (20 μL) diluted in 30 μL pure DMSO. After evaporation of DMSO with a centrifugal vacuum evaporator, the residue was dissolved in 0.05 M phosphate buffer (150 μL, pH 6.5), which was stirred for one hour and shook for two hours. After one night, the solution was filtered using a microtiter filter plate. Then the filtrate and its 1/10 dilution were analyzed by HPLC-UV.

[2] = test system: K. pneumoniae (ATCC10031); test: 50% growth inhibitory concentration (IC50) determination assay; type: cell-based; conditions: Klebsiella pneumoniae, Iso-Sensitest broth, 0.098 = detection limit
How it was run: (§1)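 Growth was tracked as optical density at 600 nm every 20 minutes for 16 h at 35±2° C, giving IC50 values. Inocula of ~5×10^5 CFU/mL in Iso-Sensitest broth faced two-fold compound dilutions spanning 50 to 0.097 μM final.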

A. baumannii (ATCC17978) = test: as above; type: cell-based; conditions: Iso-Sensitest broth, 0.098 = detection limit
How it was run: as §1

S. aureus (ATCC29213) = test: as above; type: cell-based; conditions: Staphylococcus aureus, Iso-Sensitest broth, 0.098 = detection limit
How it was run: as §1

[3] = Acinetobacter baumannii, ATCC17978, A. baumannii ATCC17978

| SMILES | solubility thermodynamic [1] [µg/mL] | IC50 [2] [µM] | IC50 (A. baumannii (ATCC17978); [3]) [µM] | IC50 (S. aureus (ATCC29213)) [µM] | Lysa [1] [µg/mL] | IC50 (A. baumannii (ATCC17978); A. baumannii ATCC17978) [µM] |
| --- | --- | --- | --- | --- | --- | --- |
| CNc1cc(F)c(F)c2c1[nH]c1ncc(-c3cnc4c(c3)c(=O)c(C(=O)O)cn4C)c(N3C[C@H]4CCC[C@@H](N(C)C)[C@H]4C3)c12 [Example 1.175] | 113 (≈ 188 µM) | < 0.098 | 0.277 | < 0.098 | – | – |
| CNc1cc(F)c(F)c2c1[nH]c1ncc(-c3cnc4c(c3)c(=O)c(C(=O)O)cn4C)c(N3CC[C@@H](CN(C)C)C3)c12 [Example 1.255] | 99 (≈ 176 µM) | < 0.098 | 0.13 | < 0.098 | – | – |
| CNc1cc(F)cc2c1[nH]c1ncc(-c3cnc4c(c3)c(=O)c(C(=O)O)cn4NC)c(N3CCC(F)(CN(C)C)C3)c12 (stereo not drawn) [Example 1.92] | 88 (≈ 153 µM) | < 0.098 | 0.14 | < 0.098 | – | – |
| CNc1cc(F)c(F)c2c1[nH]c1ncc(-c3cnc4c(c3)c(=O)c(C(=O)O)cn4C)c(N3CCC4(CCN4C)C3)c12 (stereo not drawn) [Example 1.237] | 145 (≈ 259 µM) | < 0.098 | 0.194 | < 0.098 | – | – |
| CCNn1cc(C(=O)O)c(=O)c2cc(-c3cnc4[nH]c5c(NC)cc(F)c(F)c5c4c3N3CC[C@H]4CN(C)CC43)cnc21 (stereo partly drawn) [Example 1.291] | 138 (≈ 234 µM) | < 0.098 | 0.157 | < 0.098 | – | – |
| CNc1cc(F)c(F)c2c1[nH]c1ncc(-c3cnc4c(c3)c(=O)c(C(=O)O)cn4C)c(N3CC4C(CN(C)C)CO[C@@H]4C3)c12 (stereo partly drawn) [Example 1.88] | 485 (≈ 803 µM) | < 0.098 | 0.289 | < 0.098 | – | – |
| CNc1cc(F)cc2c1[nH]c1ncc(-c3cnc4c(c3)c(=O)c(C(=O)O)cn4C)c(N3CC4[C@H](CCN4C)C3)c12 (stereo partly drawn) [Example 1.209] | 63 (≈ 116 µM) | < 0.098 | 0.076 | < 0.098 | – | – |
| CNc1cc(F)cc2c1[nH]c1ncc(-c3cnc4c(c3)c(=O)c(C(=O)O)cn4C)c(N3CCC(CN(C)CCOC)C3)c12 (stereo not drawn) [Example 1.141] | 485 (≈ 825 µM) | < 0.098 | 0.485 | < 0.098 | – | – |
| CCN1CC2[C@@H](CCN2c2c(-c3cnc4c(c3)c(=O)c(C(=O)O)cn4C)cnc3[nH]c4c(NC)cc(F)c(F)c4c23)C1 (stereo partly drawn) [Example 1.279] | 151 (≈ 263 µM) | < 0.098 | 0.215 | < 0.098 | – | – |
| CCN1CCCC1Cn1cc(C(=O)O)c(=O)c2cc(-c3cnc4[nH]c5c(NC)cc(F)c(F)c5c4c3N(C)C)cnc21 (stereo not drawn) [Example 1.04] | 32 (≈ 55.6 µM) | 0.101 | 0.935 | < 0.098 | – | – |
| CNc1cc(F)c(F)c2c1[nH]c1ncc(-c3cnc4c(c3)c(=O)c(C(=O)O)cn4C)c(N3CCC(N4CCCC4)CC3)c12 [Example 1.203] | 303 (≈ 516 µM) | < 0.098 | 0.778 | 0.208 | – | – |
| CNc1cc(F)cc2c1[nH]c1ncc(-c3cnc4c(c3)c(=O)c(C(=O)O)cn4C)c(N3CC[C@H]4CN(C)CC43)c12 (stereo partly drawn) [Example 1.187] | > 730 | < 0.098 | 0.096 | < 0.098 | – | – |
| CNc1cc(F)c(F)c2c1[nH]c1ncc(-c3cnc4c(c3)c(=O)c(C(=O)O)cn4C)c(N3C[C@H](OC)[C@@H](N(C)C)C3)c12 [Example 1.170] | – | < 0.098 | – | < 0.098 | 119 | 0.292 |
| CNc1cc(Cl)cc2c1[nH]c1ncc(-c3cnc4c(c3)c(=O)c(C(=O)O)cn4C)c(N3CCC(N(C)C)C3)c12 (stereo not drawn) [Example 1.139] | 20 (≈ 36.6 µM) | < 0.098 | 0.116 | < 0.098 | – | – |
| CNc1cc(F)c(F)c2c1[nH]c1ncc(-c3cnc4c(c3)c(=O)c(C(=O)O)cn4NC)c(N3CCC4(F)CN(C)CC34)c12 (stereo not drawn) [Example 1.121] | 58 (≈ 97.9 µM) | < 0.098 | 0.215 | < 0.098 | – | – |
| CNc1cc(F)c(F)c2c1[nH]c1ncc(-c3cnc4c(c3)c(=O)c(C(=O)O)cn4C)c(N3CCC4(CCCN(CCOC)C4)C3)c12 (stereo not drawn) [Example 1.195] | 29 (≈ 45.9 µM) | < 0.098 | 0.499 | < 0.098 | – | – |
| CNc1cc(F)c(F)c2c1[nH]c1ncc(-c3cnc4c(c3)c(=O)c(C(=O)O)cn4C)c(N3CC[C@H]4CN(CCOC)CC43)c12 (stereo partly drawn) [Example 1.96] | 169 (≈ 280 µM) | < 0.098 | 0.269 | < 0.098 | – | – |
| CNc1cc(F)cc2c1[nH]c1ncc(-c3cnc4c(c3)c(=O)c(C(=O)O)cn4C)c(N3CC4[C@H](CCCN4C)C3)c12 (stereo partly drawn) [Example 1.110] | 71 (≈ 128 µM) | < 0.098 | 0.074 | < 0.098 | – | – |

| SMILES | solubility thermodynamic [1] [µg/mL] | IC50 [2] [µM] | IC50 (A. baumannii (ATCC17978); [3]) [µM] | IC50 (S. aureus (ATCC29213)) [µM] | Lysa [1] [µg/mL] | IC50 (A. baumannii (ATCC17978); A. baumannii ATCC17978) [µM] |
| --- | --- | --- | --- | --- | --- | --- |
| CNc1cc(F)c(F)c2c1[nH]c1ncc(-c3cnc4c(c3)c(=O)c(C(=O)O)cn4C)c(N3CC4[C@H](CCN4CCCO)C3)c12 (stereo partly drawn) [Example 1.260] | 277 (≈ 459 µM) | < 0.098 | 0.558 | < 0.098 | – | – |
| CNc1cc(F)cc2c1[nH]c1ncc(-c3cnc4c(c3)c(=O)c(C(=O)O)cn4NC)c(N3CCC4(C)CN(C)CC34)c12 (stereo not drawn) [Example 1.273] | 468 (≈ 820 µM) | < 0.098 | 0.254 | < 0.098 | – | – |
| CNc1cc(F)cc2c1[nH]c1ncc(-c3cnc4c(c3)c(=O)c(C(=O)O)cn4NC)c(N3C[C@H]4OCCN(C)[C@H]4C3)c12 [Example 3.23A] | 49 (≈ 85.6 µM) | < 0.098 | 0.865 | < 0.098 | – | – |
| CNc1cc(F)cc2c1[nH]c1ncc(-c3cnc4c(c3)c(=O)c(C(=O)O)cn4C)c(N3C[C@H](OC)[C@@H](N(C)C)C3)c12 [Example 1.171] | 46 (≈ 82.2 µM) | < 0.098 | 0.445 | < 0.098 | – | – |
| CNc1cc(F)c(F)c2c1[nH]c1ncc(-c3cnc4c(c3)c(=O)c(C(=O)O)cn4C)c(N3CC4(CC4)C[C@H]3CN(C)C)c12 [Example 1.157] | 42 (≈ 71.5 µM) | < 0.098 | 0.299 | < 0.098 | – | – |
| CNc1cc(F)c(F)c2c1[nH]c1ncc(-c3cnc4c(c3)c(=O)c(C(=O)O)cn4C)c(N3CCC(CN(C)C)CC3)c12 [Example 1.183] | 96 (≈ 167 µM) | < 0.098 | 0.103 | < 0.098 | – | – |
| CNc1cc(F)c(F)c2c1[nH]c1ncc(-c3cnc4c(c3)c(=O)c(C(=O)O)cn4C)c(N3CC[C@H](CN(C)C)C3)c12 [Example 1.256] | 202 (≈ 360 µM) | < 0.098 | 0.219 | < 0.098 | – | – |
| CNc1cc(F)cc2c1[nH]c1ncc(-c3cnc4c(c3)c(=O)c(C(=O)O)cn4C)c(N3CC[C@@H]4CCN(C)[C@@H]4C3)c12 [Example 3.18B] | 338 (≈ 608 µM) | < 0.098 | 0.275 | 0.133 | – | – |
| CCNn1cc(C(=O)O)c(=O)c2cc(-c3cnc4[nH]c5c(NC)cc(F)cc5c4c3N3CC[C@H]4CN(C)CC43)cnc21 (stereo partly drawn) [Example 1.290] | 247 (≈ 433 µM) | < 0.098 | 0.148 | < 0.098 | – | – |
| CNc1cc(F)c(F)c2c1[nH]c1ncc(-c3cnc4c(c3)c(=O)c(C(=O)O)cn4C)c(N3C[C@H](C)[C@@H](N(C)C)C3)c12 [Example 1.160] | 43 (≈ 76.6 µM) | < 0.098 | 0.131 | < 0.098 | – | – |
| CNc1cc(F)cc2c1[nH]c1ncc(-c3cnc4c(c3)c(=O)c(C(=O)O)cn4C3CCNC3)c(N3CCCC3)c12 (stereo not drawn) [Example 1.259] | 17 (≈ 31.4 µM) | < 0.098 | 0.533 | < 0.098 | – | – |
| CNc1cc(F)c(F)c2c1[nH]c1ncc(-c3cnc4c(c3)c(=O)c(C(=O)O)cn4NC)c(N3CCC4C3CCCN4C)c12 (stereo not drawn) [Example 1.247] | 516 (≈ 877 µM) | < 0.098 | 0.344 | 0.217 | – | – |
| CNc1cc(F)c(F)c2c1[nH]c1ncc(-c3cnc4c(c3)c(=O)c(C(=O)O)cn4C)c(N3C[C@@H](O)[C@@H](N(C)C)C3)c12 [Example 1.223] | 472 (≈ 838 µM) | < 0.098 | 0.298 | < 0.098 | – | – |
| CNc1cc(F)c(F)c2c1[nH]c1ncc(-c3cnc4c(c3)c(=O)c(C(=O)O)cn4C)c(N3CCC4CN(C)CCC43)c12 (stereo not drawn) [Example 1.243] | 151 (≈ 263 µM) | 0.403 | 0.961 | 0.712 | – | – |
| CNc1cc(F)c(F)c2c1[nH]c1ncc(-c3cnc4c(c3)c(=O)c(C(=O)O)cn4C)c(N3CCC4(CF)CN(C)CC34)c12 (stereo not drawn) [Example 1.124] | 151 (≈ 255 µM) | < 0.098 | 0.074 | < 0.098 | – | – |
| CNc1cc(F)c(F)c2c1[nH]c1ncc(-c3cnc4c(c3)c(=O)c(C(=O)O)cn4C)c(N3C[C@H](OC)[C@@H](N(C)C)C3)c12 [Example 1.158] | – | – | 0.23 | – | 49 | – |
| CNc1c(F)c(F)cc2c1[nH]c1ncc(-c3cnc4c(c3)c(=O)c(C(=O)O)cn4C)c(N3CC[C@H]4CN(C)CC43)c12 (stereo partly drawn) [Example 1.103] | 11 (≈ 19.7 µM) | – | 0.13 | – | – | – |
| CNc1cc(F)c(F)c2c1[nH]c1ncc(-c3cnc4c(c3)c(=O)c(C(=O)O)cn4C)c(N3CCN4CCC[C@@H]4C3)c12 [Example 1.220] | 79 (≈ 141 µM) | – | 0.141 | – | – | – |

Reference: patent publication US10662203B2, “Pyrido[2,3-b]indole compounds for the treatment and prophylaxis of bacterial infection” (Hoffmann-La Roche Inc., priority 2017, dated 2020)
